Results: ChEMBL document CHEMBL3885861, “Open TG-GATES”

Species: Rattus norvegicus
Assay: Open TG-GATES - Regimen: Single
Format: toxicity, organism-based, Sprague-Dawley
Set-up: regimen Single, gender Male, age 6 weeks
Details: in vivo, po, route gavage; for KIDNEY_L / KIDNEY_R / KIDNEY_TOTAL: tissue Kidney; for LIVER: tissue Liver; for ALP / ALT / CRE / DBIL / GLC / IP / K / Na / RALB / TBIL / TG / TP / gamma-GTP / BUN / PL: tissue Plasma
[1] = 0 mg/kg, 3 h, dose level Control
[2] = 0 mg/kg, 3 h, tissue Blood, dose level Control
[3] = 0 mg/kg, 6 h, dose level Control
[4] = 0 mg/kg, 6 h, tissue Blood, dose level Control
[5] = 0 mg/kg, 9 h, dose level Control
[6] = 0 mg/kg, 9 h, tissue Blood, dose level Control
[7] = 0 mg/kg, 24 h, dose level Control
[8] = 0 mg/kg, 24 h, tissue Blood, dose level Control
[9] = 3 mg/kg, 3 h, tissue Blood, dose level Low
[10] = 3 mg/kg, 6 h, tissue Blood, dose level Low
[11] = 3 mg/kg, 9 h, tissue Blood, dose level Low
[12] = 3 mg/kg, 24 h, tissue Blood, dose level Low

Compound `CNCCC(Oc1ccc(C(F)(F)F)cc1)c1ccccc1.Cl` (centres undefined) [FLUOXETINE HYDROCHLORIDE] has a TERMINAL_BW [1] of 216.5 g, a Bas [2] of 0% and an Eos [2] of 1%. It also gave a Ht [2] of 41.2%, a Lym [2] of 72.6% and an MCHC [2] of 32.1%. It also gave a Ret [2] of 8.8%, a WBC [2] of 83.4 x10_2/uL and a KIDNEY_L [1] of 0.9 g. For the same compound, the KIDNEY_R [1] was 0.9 g, the KIDNEY_TOTAL [1] was 1.9 g and the LIVER [1] was 10.4 g. The ALP [1] was 1343.2 IU/L, the ALT [1] was 37.8 IU/L and the CRE [1] was 0.4 mg/dL. It also gave a DBIL [1] of 0.014 mg/dL, a GLC [1] of 198 mg/dL and an IP [1] of 10.1 mg/dL. The K [1] was 4.9 meq/L, the Na [1] was 138.2 meq/L and the RALB [1] was 4.1 g/dL. It also gave a TBIL [1] of 0.056 mg/dL, a TG [1] of 81.8 mg/dL and a TP [1] of 5.7 g/dL. For the same compound, the gamma-GTP [1] was 0.4 IU/L, the TERMINAL_BW [3] was 217.6 g and the Bas [4] was 0%. The Eos [4] was 1%, the Ht [4] was 41.1% and the Lym [4] was 72%. The MCHC [4] was 32.2%, the Ret [4] was 6.9% and the WBC [4] was 98.6 x10_2/uL. It also gave a KIDNEY_L [3] of 1 g, a KIDNEY_R [3] of 1 g and a KIDNEY_TOTAL [3] of 2.1 g. For the same compound, the LIVER [3] was 9.3 g, the ALP [3] was 1497.6 IU/L and the ALT [3] was 35 IU/L. It also gave a BUN [3] of 9.2 mg/dL, a CRE [3] of 0.4 mg/dL and a DBIL [3] of 0.008 mg/dL. For the same compound, the GLC [3] was 191 mg/dL, the IP [3] was 9.8 mg/dL and the K [3] was 5 meq/L. The Na [3] was 137.3 meq/L, the PL [3] was 131.2 mg/dL and the RALB [3] was 3.8 g/dL. The TBIL [3] was 0.048 mg/dL, the TG [3] was 45.8 mg/dL and the TP [3] was 5.3 g/dL. It also gave a gamma-GTP [3] of 1 IU/L, a TERMINAL_BW [5] of 216.1 g and a Bas [6] of 0%. The Eos [6] was 1%, the Ht [6] was 40.2% and the Lym [6] was 66.4%. For the same compound, the MCHC [6] was 32.5%, the Ret [6] was 8% and the WBC [6] was 106.4 x10_2/uL. It also gave a KIDNEY_L [5] of 1 g, a KIDNEY_R [5] of 1 g and a KIDNEY_TOTAL [5] of 2 g. For the same compound, the LIVER [5] was 9.2 g, the ALP [5] was 1190.2 IU/L and the ALT [5] was 28.6 IU/L. It also gave a CRE [5] of 0.4 mg/dL, a DBIL [5] of 0.01 mg/dL and a GLC [5] of 188.2 mg/dL. The IP [5] was 10.2 mg/dL, the K [5] was 5.1 meq/L and the Na [5] was 139 meq/L. For the same compound, the PL [5] was 139.8 mg/dL, the RALB [5] was 3.8 g/dL and the TBIL [5] was 0.042 mg/dL. It also gave a TG [5] of 63 mg/dL, a TP [5] of 5.3 g/dL and a gamma-GTP [5] of 0.4 IU/L. The TERMINAL_BW [7] was 234.5 g, the Bas [8] was 0% and the Eos [8] was 1%. It also gave a Ht [8] of 39.6%, a Lym [8] of 76.4% and an MCHC [8] of 32.7%. The Ret [8] was 7%, the WBC [8] was 121.8 x10_2/uL and the KIDNEY_L [7] was 1 g. It also gave a KIDNEY_R [7] of 1 g, a KIDNEY_TOTAL [7] of 2 g and an ALP [7] of 1409.4 IU/L. It also gave an ALT [7] of 36.6 IU/L, a CRE [7] of 0.4 mg/dL and a DBIL [7] of 0.012 mg/dL. It also gave a GLC [7] of 194.6 mg/dL, an IP [7] of 8.1 mg/dL and a K [7] of 5.1 meq/L. For the same compound, the Na [7] was 138.3 meq/L, the RALB [7] was 4 g/dL and the TBIL [7] was 0.036 mg/dL. The TG [7] was 133.6 mg/dL, the TP [7] was 5.6 g/dL and the gamma-GTP [7] was 1 IU/L. For the same compound, the TERMINAL_BW (3 mg/kg, 3 h, dose level Low) was 213 g, the Bas [9] was 0% and the Eos [9] was 1%. The Ht [9] was 41.8%, the Lym [9] was 76.6% and the MCHC [9] was 32.2%. It also gave a Ret [9] of 7.7%, a WBC [9] of 94.4 x10_2/uL and a KIDNEY_L (3 mg/kg, 3 h, dose level Low) of 0.9 g. The KIDNEY_R (3 mg/kg, 3 h, dose level Low) was 0.9 g, the KIDNEY_TOTAL (3 mg/kg, 3 h, dose level Low) was 1.8 g and the LIVER (3 mg/kg, 3 h, dose level Low) was 9.9 g. It also gave an ALP (3 mg/kg, 3 h, dose level Low) of 1490.4 IU/L, an ALT (3 mg/kg, 3 h, dose level Low) of 36.6 IU/L and a BUN (3 mg/kg, 3 h, dose level Low) of 11.4 mg/dL. For the same compound, the CRE (3 mg/kg, 3 h, dose level Low) was 0.4 mg/dL, the DBIL (3 mg/kg, 3 h, dose level Low) was 0.012 mg/dL and the GLC (3 mg/kg, 3 h, dose level Low) was 209 mg/dL. For the same compound, the IP (3 mg/kg, 3 h, dose level Low) was 10 mg/dL, the K (3 mg/kg, 3 h, dose level Low) was 4.5 meq/L and the Na (3 mg/kg, 3 h, dose level Low) was 138 meq/L. For the same compound, the RALB (3 mg/kg, 3 h, dose level Low) was 4.1 g/dL, the TBIL (3 mg/kg, 3 h, dose level Low) was 0.042 mg/dL and the TG (3 mg/kg, 3 h, dose level Low) was 85 mg/dL. It also gave a TP (3 mg/kg, 3 h, dose level Low) of 5.8 g/dL, a gamma-GTP (3 mg/kg, 3 h, dose level Low) of 0.2 IU/L and a TERMINAL_BW (3 mg/kg, 6 h, dose level Low) of 215.1 g. For the same compound, the Bas [10] was 0%, the Eos [10] was 1% and the Ht [10] was 41.2%. For the same compound, the Lym [10] was 67.4%, the MCH [10] was 22 pg and the MCHC [10] was 32.5%. The Ret [10] was 6.8%, the WBC [10] was 80.2 x10_2/uL and the KIDNEY_L (3 mg/kg, 6 h, dose level Low) was 0.9 g. It also gave a KIDNEY_R (3 mg/kg, 6 h, dose level Low) of 0.9 g, a KIDNEY_TOTAL (3 mg/kg, 6 h, dose level Low) of 1.8 g and an LIVER (3 mg/kg, 6 h, dose level Low) of 9.5 g. The ALP (3 mg/kg, 6 h, dose level Low) was 1275 IU/L, the ALT (3 mg/kg, 6 h, dose level Low) was 36.8 IU/L and the BUN (3 mg/kg, 6 h, dose level Low) was 10.2 mg/dL. For the same compound, the CRE (3 mg/kg, 6 h, dose level Low) was 0.4 mg/dL, the DBIL (3 mg/kg, 6 h, dose level Low) was 0.01 mg/dL and the GLC (3 mg/kg, 6 h, dose level Low) was 196 mg/dL. It also gave an IP (3 mg/kg, 6 h, dose level Low) of 10.3 mg/dL, a K (3 mg/kg, 6 h, dose level Low) of 4.8 meq/L and a Na (3 mg/kg, 6 h, dose level Low) of 137.7 meq/L. It also gave an RALB (3 mg/kg, 6 h, dose level Low) of 3.9 g/dL, a TBIL (3 mg/kg, 6 h, dose level Low) of 0.046 mg/dL and a TG (3 mg/kg, 6 h, dose level Low) of 100 mg/dL. The TP (3 mg/kg, 6 h, dose level Low) was 5.4 g/dL, the gamma-GTP (3 mg/kg, 6 h, dose level Low) was 1 IU/L and the TERMINAL_BW (3 mg/kg, 9 h, dose level Low) was 212.9 g. The Bas [11] was 0%, the Eos [11] was 1% and the Ht [11] was 40.1%. The Lym [11] was 69.2%, the MCHC [11] was 32.4% and the Ret [11] was 6.5%. The WBC [11] was 79.8 x10_2/uL, the KIDNEY_L (3 mg/kg, 9 h, dose level Low) was 0.9 g and the KIDNEY_R (3 mg/kg, 9 h, dose level Low) was 0.9 g. It also gave a KIDNEY_TOTAL (3 mg/kg, 9 h, dose level Low) of 1.8 g, an LIVER (3 mg/kg, 9 h, dose level Low) of 9.3 g and an ALP (3 mg/kg, 9 h, dose level Low) of 1183.8 IU/L. For the same compound, the ALT (3 mg/kg, 9 h, dose level Low) was 27.6 IU/L, the BUN (3 mg/kg, 9 h, dose level Low) was 11.2 mg/dL and the CRE (3 mg/kg, 9 h, dose level Low) was 0.4 mg/dL. It also gave a DBIL (3 mg/kg, 9 h, dose level Low) of 0.01 mg/dL, a GLC (3 mg/kg, 9 h, dose level Low) of 195.6 mg/dL and an IP (3 mg/kg, 9 h, dose level Low) of 10.2 mg/dL. For the same compound, the K (3 mg/kg, 9 h, dose level Low) was 5 meq/L, the Na (3 mg/kg, 9 h, dose level Low) was 139.1 meq/L and the PL (3 mg/kg, 9 h, dose level Low) was 136.8 mg/dL. The RALB (3 mg/kg, 9 h, dose level Low) was 3.9 g/dL, the TBIL (3 mg/kg, 9 h, dose level Low) was 0.036 mg/dL and the TG (3 mg/kg, 9 h, dose level Low) was 59.2 mg/dL. It also gave a TP (3 mg/kg, 9 h, dose level Low) of 5.5 g/dL, a gamma-GTP (3 mg/kg, 9 h, dose level Low) of 0.4 IU/L and a TERMINAL_BW (3 mg/kg, 24 h, dose level Low) of 223.4 g. The Bas [12] was 0%, the Eos [12] was 1% and the Ht [12] was 40.2%. For the same compound, the Lym [12] was 72%, the MCHC [12] was 32.5% and the Ret [12] was 7.1%. It also gave a WBC [12] of 86.8 x10_2/uL, a KIDNEY_L (3 mg/kg, 24 h, dose level Low) of 1 g and a KIDNEY_R (3 mg/kg, 24 h, dose level Low) of 1 g. For the same compound, the KIDNEY_TOTAL (3 mg/kg, 24 h, dose level Low) was 2 g, the LIVER (3 mg/kg, 24 h, dose level Low) was 10.5 g and the ALP (3 mg/kg, 24 h, dose level Low) was 1597.4 IU/L. For the same compound, the ALT (3 mg/kg, 24 h, dose level Low) was 35.6 IU/L, the BUN (3 mg/kg, 24 h, dose level Low) was 16.4 mg/dL and the CRE (3 mg/kg, 24 h, dose level Low) was 0.4 mg/dL. The DBIL (3 mg/kg, 24 h, dose level Low) was 0.01 mg/dL, the GLC (3 mg/kg, 24 h, dose level Low) was 194.8 mg/dL and the IP (3 mg/kg, 24 h, dose level Low) was 8 mg/dL. For the same compound, the K (3 mg/kg, 24 h, dose level Low) was 4.9 meq/L, the Na (3 mg/kg, 24 h, dose level Low) was 139.1 meq/L and the RALB (3 mg/kg, 24 h, dose level Low) was 3.9 g/dL. For the same compound, the TBIL (3 mg/kg, 24 h, dose level Low) was 0.034 mg/dL, the TG (3 mg/kg, 24 h, dose level Low) was 124.2 mg/dL and the TP (3 mg/kg, 24 h, dose level Low) was 5.6 g/dL. For the same compound, the gamma-GTP (3 mg/kg, 24 h, dose level Low) was 1 IU/L and the TERMINAL_BW (10 mg/kg, 3 h, dose level Middle) was 225.1 g.
